From US6737383B1, “Herbicidal oxadiazolidines” (priority 1999, dated 2004)

Tests used:
[1] = test system: soybean; experiment: Test B pre/postemergence soybean; assay type: in vivo, Glycine max
In short: (§1)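 Herbicidal effect was estimated by eye on a ten-point control scale after plants spent twelve to sixteen days in a greenhouse following soil or foliar treatment. Foliar sprays targeted plants at one to four leaves; all doses were formulated in a non-phytotoxic solvent with surfactant.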

[2] = test system: sugar beet; experiment: Test B pre/postemergence sugar beet; assay type: in vivo, Beta vulgaris
In short: as §1

[3] = test system: velvetleaf; experiment: Test B pre/postemergence velvetleaf; assay type: in vivo, Abutilon theophrasti
In short: as §1

[4] = test system: pigweed; experiment: Test B pre/postemergence pigweed; assay type: in vivo, Amaranthus retroflexus
In short: as §1

[5] = test system: purple nutsedge; experiment: Test B pre/postemergence purple nutsedge; assay type: in vivo, Cyperus rotundus
In short: as §1

[6] = test system: cocklebur; experiment: Test B pre/postemergence cocklebur; assay type: in vivo, Xanthium strumarium
In short: as §1

[7] = test system: wild oat; experiment: Test B pre/postemergence wild oat; assay type: in vivo, Avena fatua
In short: as §1

[8] = test system: morningglory; experiment: Test B pre/postemergence morningglory; assay type: in vivo, Ipomoea hederacea
In short: as §1

[9] = test system: rape; experiment: Test B pre/postemergence rape; assay type: in vivo, Brassica napus
In short: as §1

[10] = test system: giant foxtail; experiment: Test B pre/postemergence giant foxtail; assay type: in vivo, Setaria faberii
In short: as §1

[11] = test system: crabgrass; experiment: Test B pre/postemergence crabgrass; assay type: in vivo, Digitaria sanguinalis
In short: as §1

[12] = test system: corn; experiment: Test B pre/postemergence corn; assay type: in vivo, Zea mays
In short: as §1

[13] = test system: surinam grass; experiment: Test B pre/postemergence surinam grass; assay type: in vivo, Brachiaria decumbens
In short: as §1

[14] = test system: blackgrass; experiment: Test B pre/postemergence blackgrass; assay type: in vivo, Alopecurus myosuroides
In short: as §1

[15] = Postemergence, Rate 125 g/ha, scale of 0 to 10 where 0 is no effect and 10 is complete control
[16] = Preemergence, Rate 62 g/ha, scale of 0 to 10 where 0 is no effect and 10 is complete control
[17] = Preemergence, Rate 125 g/ha, 0 is no effect, 10 is complete control
[18] = Preemergence, Rate 250 g/ha, scale 0 to 10, 0 is no effect, 10 is complete control
[19] = Preemergence, Rate 500 g/ha, scale 0 to 10 (0 no effect, 10 complete control)
[20] = Rate 62 g/ha, Postemergence, scale of 0 to 10 where 0 is no effect and 10 is complete control
[21] = Rate 250 g/ha, Postemergence, scale 0 to 10, 0 is no effect, 10 is complete control
[22] = Rate 500 g/ha, Postemergence, scale 0 to 10

For `CC(C)N(C(=O)n1oc(=O)n([C@@H](C)c2ccccc2)c1=O)c1ccc(Cl)cc1` [Compound 174], which “Soybean plant response rating” value [1, 15] is on record?
The value was 2.

What about the “Soybean plant response rating” value [1, 16] of the same compound?
Its value is 0.

What about the “Soybean plant response rating (0 to 10 scale)” value [1, 17] of the same compound?
Its value is 0.

And the “Soybean plant response rating” value [1, 18]?
The value was 0.

What about the “Soybean plant response rating” value [1, 19] of the same compound?
The value was 0.

What about the “Soybean plant response rating” value [1, 20] of the same compound?
The value was 2.

What about the “Plant response rating, Soybean” value [1, 21] of the same compound?
The value was 2.

What about the “Soybean plant response rating” value [1, 22] of the same compound?
Its value is 4.

And the “Sugarbeets plant response rating” value [2, 15]?
Its value is 0.

What about the “Sugarbeets plant response rating” value [2, 16] of the same compound?
Its value is 3.

What about the “Sugarbeets plant response rating (0 to 10 scale)” value [2, 17] of the same compound?
The value was 3.

What about the “Sugarbeets plant response rating” value [2, 18] of the same compound?
The value was 6.

What about the “Sugarbeets plant response rating” value [2, 19] of the same compound?
Its value is 6.

What about the “Sugarbeets plant response rating” value [2, 20] of the same compound?
The value was 0.

What about the “Plant response rating, Sugarbeets” value [2, 21] of the same compound?
Its value is 6.

What about the “Sugarbeets plant response rating” value [2, 22] of the same compound?
Its value is 6.

And the “Velvetleaf plant response rating” value [3, 16]?
Its value is 0.

And the “Velvetleaf plant response rating (0 to 10 scale)” value [3, 17]?
The value was 0.

What about the “Velvetleaf plant response rating” value [3, 18] of the same compound?
The value was 0.

What about the “Velvetleaf plant response rating” value [3, 19] of the same compound?
Its value is 0.

What about the “Plant response rating, Velvetleaf” value [3, 21] of the same compound?
Its value is 0.

What about the “Velvetleaf plant response rating” value [3, 22] of the same compound?
Its value is 0.

And the “Redroot pigweed plant response rating” value [4, 15]?
Its value is 4.

What about the “Redroot pigweed plant response rating” value [4, 16] of the same compound?
Its value is 0.

And the “Redroot pigweed plant response rating (0 to 10 scale)” value [4, 17]?
The value was 6.

What about the “Redroot pigweed plant response rating” value [4, 18] of the same compound?
The value was 8.

And the “Redroot pigweed plant response rating” value [4, 19]?
The value was 9.

What about the “Redroot pigweed plant response rating” value [4, 20] of the same compound?
Its value is 0.

And the “Plant response rating, Redroot pigweed” value [4, 21]?
Its value is 6.

What about the “Redroot pigweed plant response rating” value [4, 22] of the same compound?
Its value is 6.

What about the “Nutsedge plant response rating” value [5, 15] of the same compound?
Its value is 0.

What about the “Nutsedge plant response rating” value [5, 16] of the same compound?
The value was 0.

And the “Nutsedge plant response rating (0 to 10 scale)” value [5, 17]?
Its value is 0.

And the “Nutsedge plant response rating” value [5, 20]?
The value was 0.

And the “Plant response rating, Nutsedge” value [5, 21]?
Its value is 0.

And the “Nutsedge plant response rating” value [5, 22]?
The value was 0.

And the “Cocklebur plant response rating” value [6, 15]?
Its value is 1.

And the “Cocklebur plant response rating” value [6, 16]?
The value was 0.

What about the “Cocklebur plant response rating (0 to 10 scale)” value [6, 17] of the same compound?
Its value is 0.

And the “Cocklebur plant response rating” value [6, 18]?
The value was 0.

And the “Cocklebur plant response rating” value [6, 19]?
The value was 0.

And the “Cocklebur plant response rating” value [6, 20]?
The value was 0.

What about the “Plant response rating, Cocklebur” value [6, 21] of the same compound?
Its value is 2.

And the “Cocklebur plant response rating” value [6, 22]?
The value was 3.

What about the “Wild oats plant response rating” value [7, 16] of the same compound?
Its value is 0.

And the “Wild oats plant response rating (0 to 10 scale)” value [7, 17]?
Its value is 0.

And the “Wild oats plant response rating” value [7, 18]?
The value was 0.

What about the “Wild oats plant response rating” value [7, 19] of the same compound?
The value was 0.

What about the “Plant response rating, Wild oats” value [7, 21] of the same compound?
Its value is 0.

What about the “Wild oats plant response rating” value [7, 22] of the same compound?
Its value is 0.

What about the “Morningglory plant response rating” value [8, 15] of the same compound?
The value was 5.

And the “Morningglory plant response rating” value [8, 16]?
The value was 0.

And the “Morningglory plant response rating (0 to 10 scale)” value [8, 17]?
Its value is 0.

What about the “Morningglory plant response rating” value [8, 18] of the same compound?
The value was 0.

And the “Morningglory plant response rating” value [8, 19]?
The value was 0.

What about the “Morningglory plant response rating” value [8, 20] of the same compound?
Its value is 3.

And the “Plant response rating, Morningglory” value [8, 21]?
The value was 5.

And the “Morningglory plant response rating” value [8, 22]?
The value was 5.

And the “Rape plant response rating” value [9, 15]?
Its value is 0.

And the “Rape plant response rating” value [9, 16]?
Its value is 0.

And the “Rape plant response rating (0 to 10 scale)” value [9, 17]?
The value was 0.

What about the “Rape plant response rating” value [9, 18] of the same compound?
Its value is 0.

What about the “Rape plant response rating” value [9, 19] of the same compound?
Its value is 4.

What about the “Rape plant response rating” value [9, 20] of the same compound?
Its value is 0.

What about the “Plant response rating, Rape” value [9, 21] of the same compound?
Its value is 0.

And the “Rape plant response rating” value [9, 22]?
Its value is 2.

And the “Giant foxtail plant response rating” value [10, 15]?
The value was 0.

And the “Giant foxtail plant response rating” value [10, 16]?
Its value is 8.

And the “Giant foxtail plant response rating (0 to 10 scale)” value [10, 17]?
The value was 9.

And the “Giant foxtail plant response rating” value [10, 18]?
Its value is 10.

And the “Giant foxtail plant response rating” value [10, 19]?
Its value is 10.

What about the “Giant foxtail plant response rating” value [10, 20] of the same compound?
The value was 0.

And the “Plant response rating, Giant foxtail” value [10, 21]?
The value was 0.

What about the “Giant foxtail plant response rating” value [10, 22] of the same compound?
The value was 1.

And the “Crabgrass plant response rating” value [11, 15]?
Its value is 4.

What about the “Crabgrass plant response rating” value [11, 16] of the same compound?
The value was 2.

And the “Crabgrass plant response rating (0 to 10 scale)” value [11, 17]?
Its value is 8.

And the “Crabgrass plant response rating” value [11, 18]?
Its value is 8.

What about the “Crabgrass plant response rating” value [11, 19] of the same compound?
Its value is 10.

And the “Crabgrass plant response rating” value [11, 20]?
Its value is 2.

What about the “Plant response rating, Crabgrass” value [11, 21] of the same compound?
Its value is 7.

And the “Crabgrass plant response rating” value [11, 22]?
Its value is 8.

And the “Corn plant response rating” value [12, 15]?
Its value is 0.

What about the “Corn plant response rating” value [12, 16] of the same compound?
Its value is 0.

And the “Corn plant response rating (0 to 10 scale)” value [12, 17]?
Its value is 0.

What about the “Corn plant response rating” value [12, 18] of the same compound?
The value was 0.

What about the “Corn plant response rating” value [12, 19] of the same compound?
Its value is 0.

And the “Corn plant response rating” value [12, 20]?
Its value is 0.

And the “Plant response rating, Corn” value [12, 21]?
The value was 0.

What about the “Corn plant response rating” value [12, 22] of the same compound?
Its value is 0.

And the “B. signalgrass plant response rating” value [13, 15]?
The value was 0.

What about the “B. signalgrass plant response rating” value [13, 16] of the same compound?
Its value is 0.

And the “B. signalgrass plant response rating (0 to 10 scale)” value [13, 17]?
Its value is 0.

What about the “B. signalgrass plant response rating” value [13, 18] of the same compound?
The value was 0.

What about the “B. signalgrass plant response rating” value [13, 19] of the same compound?
Its value is 4.

What about the “B. signalgrass plant response rating” value [13, 20] of the same compound?
The value was 0.

What about the “Plant response rating, B. signalgrass” value [13, 21] of the same compound?
The value was 0.

And the “B. signalgrass plant response rating” value ([13]; Rate 500 g/ha, Postemergence, scale 0 to 10, 0 no effect, 10 complete control)?
The value was 0.

And the “Blackgrass plant response rating” value [14, 15]?
Its value is 0.

And the “Blackgrass plant response rating” value [14, 16]?
Its value is 0.

And the “Blackgrass plant response rating (0 to 10 scale)” value [14, 17]?
The value was 2.

And the “Blackgrass plant response rating” value [14, 18]?
The value was 2.

And the “Blackgrass plant response rating” value [14, 19]?
The value was 2.

What about the “Blackgrass plant response rating” value [14, 20] of the same compound?
Its value is 0.

What about the “Plant response rating, Blackgrass” value [14, 21] of the same compound?
Its value is 0.

And the “Blackgrass plant response rating” value [14, 22]?
The value was 3.
